Assay results reported in patent publication US10770169B2, “Method of providing a treatment to a subject based on a dynamic pathway map” (THE REGENTS OF THE UNIVERSITY OF CALIFORNIA, priority 2010, dated 2020).
Like-named read-outs stand apart in the source and are kept apart here.

Key:
[1] = test system: breast cancer cell lines with aberrant vs normal copy number; assay: Association of recurrent copy number changes and response (t-test on GI50); type: cell-based, human; details: FDR p<0.2
Source text: We used a t-test to assess the association between recurrent copy number changes (at 8q24 (MYC), 11q13 (CCND1), 20q13 (STK15/AURKA)) and drug sensitivity. We combined into a single group cell lines with low or no amplification and compared them to cell lines with high amplification. […] Cell lines for which the GI50 was equal to the maximum concentration tested were omitted from analysis. We omitted compounds where any group had fewer than five samples.

[2] = test system: panel of 55 breast cancer cell lines; assay: Cell growth inhibition assay (Cell Titer Glo, 72 h, 9 doses; GI50, TGI, LC50); type: cell-based, human; details: Homo sapiens, read-out: GI50 (converted)

With `CCC1=C[C@@H]2CN(C1)Cc1c([nH]c3ccccc13)[C@@](C(=O)OC)(c1cc3c(cc1OC)N(C)[C@H]1[C@@](O)(C(=O)OC)[C@H](OC(C)=O)[C@]4(CC)C=CCN5CC[C@]31[C@@H]54)C2` [Vinorelbine] the “association of response with homozygous deletion at 9p21 (CDKN2A)” value [1] was “associated with response”, the GI50 ([2]; 600MPE cell line, censored GI50 values) was 5130 nM and the GI50 ([2]; AU565, AU565 cell line, censored GI50 values) was 8.71 nM. It also gave a GI50 ([2]; AU565, cell line AU565) of 8.71 nM, a GI50 ([2]; BT-474, BT474 cell line, censored GI50 values) of 47.9 nM and a GI50 ([2]; BT-474, cell line BT474) of 47.9 nM. It also gave a GI50 ([2]; BT-483, BT483 cell line, censored GI50 values) of 7.24 nM, a GI50 ([2]; BT-483, cell line BT483) of 7.24 nM and a GI50 ([2]; BT-549, BT549 cell line, censored GI50 values) of 9.55 nM. It also gave a GI50 ([2]; BT-549, cell line BT549) of 9.55 nM, a GI50 ([2]; CAMA-1, CAMA1 cell line, censored GI50 values) of 13.2 nM and a GI50 ([2]; CAMA-1, cell line CAMA1) of 13.2 nM. It also gave a GI50 ([2]; HCC38, HCC38 cell line, censored GI50 values) of 11.5 nM, a GI50 ([2]; HCC38, cell line HCC38) of 11.5 nM and a GI50 ([2]; HCC70, HCC70 cell line, censored GI50 values) of 7.41 nM. For the same molecule, the GI50 ([2]; HCC70, cell line HCC70) was 7.41 nM, the GI50 ([2]; HCC202, HCC202 cell line, censored GI50 values) was 13.5 nM and the GI50 ([2]; HCC202, cell line HCC202) was 13.5 nM. It also gave a GI50 ([2]; HCC1143, HCC1143 cell line, censored GI50 values) of 263 nM, a GI50 ([2]; HCC1143, cell line HCC1143) of 263 nM and a GI50 ([2]; HCC1187, HCC1187 cell line, censored GI50 values) of 26.9 nM. For the same molecule, the GI50 ([2]; HCC1187, cell line HCC1187) was 26.9 nM, the GI50 ([2]; HCC1395, HCC1395 cell line, censored GI50 values) was 3.55 nM and the GI50 ([2]; HCC1395, cell line HCC1395) was 3.55 nM. The GI50 ([2]; HCC1419, HCC1419 cell line, censored GI50 values) was 355 nM, the GI50 ([2]; HCC1419, cell line HCC1419) was 355 nM and the GI50 ([2]; HCC1428, HCC1428 cell line, censored GI50 values) was 2190 nM. It also gave a GI50 ([2]; HCC1428, cell line HCC1428) of 2190 nM, a GI50 ([2]; HCC1500, HCC1500 cell line, censored GI50 values) of 11 nM and a GI50 ([2]; HCC1500, cell line HCC1500) of 11 nM. For the same molecule, the GI50 ([2]; HCC1806, HCC1806 cell line, censored GI50 values) was 11.7 nM, the GI50 ([2]; HCC1806, cell line HCC1806) was 11.7 nM and the GI50 ([2]; HCC1937, HCC1937 cell line, censored GI50 values) was 224 nM. It also gave a GI50 ([2]; HCC1937, cell line HCC1937) of 224 nM, a GI50 ([2]; HCC1954, HCC1954 cell line, censored GI50 values) of 3.55 nM and a GI50 ([2]; HCC1954, cell line HCC1954) of 3.55 nM. The GI50 ([2]; HCC2185 cell line, censored GI50 values) was 26300 nM, the GI50 ([2]; HCC3153 cell line, censored GI50 values) was 51.3 nM and the GI50 ([2]; LY2 cell line, censored GI50 values) was 13.2 nM. For the same molecule, the GI50 ([2]; MCF7, MCF7 cell line, censored GI50 values) was 16.6 nM, the GI50 ([2]; MCF7, cell line MCF7) was 16.6 nM and the GI50 ([2]; MDA-MB-134-VI, MDAMB134VI cell line, censored GI50 values) was 13.5 nM. It also gave a GI50 ([2]; MDA-MB-157, MDAMB157 cell line, censored GI50 values) of 12.9 nM, a GI50 ([2]; MDA-MB-157, cell line MDAMB157) of 12.9 nM and a GI50 ([2]; MDA-MB-175-VII, MDAMB175VII cell line, censored GI50 values) of 38.9 nM. The GI50 ([2]; MDA-MB-231, MDAMB231 cell line, censored GI50 values) was 5.13 nM, the GI50 ([2]; MDA-MB-231, cell line MDAMB231) was 5.13 nM and the GI50 ([2]; MDA-MB-361, MDAMB361 cell line, censored GI50 values) was 6.61 nM. It also gave a GI50 ([2]; MDA-MB-361, cell line MDAMB361) of 6.61 nM, a GI50 ([2]; MDA-MB-415, MDAMB415 cell line, censored GI50 values) of 18.2 nM and a GI50 ([2]; MDA-MB-415, cell line MDAMB415) of 18.2 nM. It also gave a GI50 ([2]; MDA-MB-436, MDAMB436 cell line, censored GI50 values) of 26.9 nM, a GI50 ([2]; MDA-MB-436, cell line MDAMB436) of 26.9 nM and a GI50 ([2]; MDA-MB-453, MDAMB453 cell line, censored GI50 values) of 3.8 nM. For the same molecule, the GI50 ([2]; MDA-MB-453, cell line MDAMB453) was 3.8 nM, the GI50 ([2]; MDA-MB-468, MDAMB468 cell line, censored GI50 values) was 10.7 nM and the GI50 ([2]; MDA-MB-468, cell line MDAMB468) was 10.7 nM. It also gave a GI50 ([2]; SK-BR-3, SKBR3 cell line, censored GI50 values) of 17.4 nM, a GI50 ([2]; SK-BR-3, cell line SKBR3) of 17.4 nM and a GI50 ([2]; SUM52PE, SUM52PE cell line, censored GI50 values) of 5.37 nM. For the same molecule, the GI50 ([2]; SUM52PE, cell line SUM52PE) was 5.37 nM, the GI50 ([2]; SUM149PT, SUM149PT cell line, censored GI50 values) was 12.3 nM and the GI50 ([2]; SUM149PT, cell line SUM149PT) was 12.3 nM. It also gave a GI50 ([2]; SUM185PE, SUM185PE cell line, censored GI50 values) of 8.32 nM, a GI50 ([2]; SUM185PE, cell line SUM185PE) of 8.32 nM and a GI50 ([2]; SUM1315MO2, SUM1315MO2 cell line, censored GI50 values) of 2.24 nM. It also gave a GI50 ([2]; SUM-159-PT, SUM159PT cell line, censored GI50 values) of 12.3 nM, a GI50 ([2]; SUM-159-PT, cell line SUM159PT) of 12.3 nM and a GI50 ([2]; T47D, T47D cell line, censored GI50 values) of 4680 nM. For the same molecule, the GI50 ([2]; T47D, cell line T47D) was 4680 nM, the GI50 ([2]; UACC-812, UACC812 cell line, censored GI50 values) was 74.1 nM and the GI50 ([2]; UACC-812, cell line UACC812) was 74.1 nM. For the same molecule, the GI50 ([2]; UACC-893, UACC893 cell line, censored GI50 values) was 11 nM, the GI50 ([2]; UACC-893, cell line UACC893) was 11 nM and the GI50 ([2]; ZR-75-1, ZR751 cell line, censored GI50 values) was 44.7 nM. For the same molecule, the GI50 ([2]; ZR-75-1, cell line ZR751) was 44.7 nM, the GI50 ([2]; ZR-75B, ZR75B cell line, censored GI50 values) was 8.91 nM and the GI50 ([2]; ZR-75B, cell line ZR75B) was 8.91 nM. The GI50 ([2]; cell line 600MPE) was 5130 nM, the GI50 ([2]; cell line HCC2185) was 26300 nM and the GI50 ([2]; cell line HCC3153) was 51.3 nM. It also gave a GI50 ([2]; cell line LY2) of 13.2 nM, a GI50 ([2]; cell line MDAMB134V) of 13.5 nM and a GI50 ([2]; cell line MDAMB175V) of 38.9 nM. For the same molecule, the GI50 ([2]; cell line SUM1315MO) was 2.24 nM.
